Results on one compound are retold here after paper PMC8943889, “Synthetic studies with the brevicidine and laterocidine lipopeptide antibiotics including analogues with enhanced properties and in vivo efficacy” (Chemical Science, 2022).

The test system of one data set is K. pneumoniae 2048. The class given is cell-based. Particulars: 2048, 16 h. In short, it runs like this:
(§1)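 Colonies from 16 h agar plates were grown in TSB at 37°C to OD600 0.5, diluted in MHB to 2 × 10^5 CFU mL−1 final and mixed with serially diluted lipopeptides. Plates were sealed and shaken 16 h at 37°C; growth was inspected by eye.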

The subject of a further data set is P. aeruginosa NRZ-03961. The class given is cell-based. Particulars: NRZ-03961, 16 h. In short, it runs like this: as §1
A further data set concerns P. aeruginosa ATCC 27853. The class given is cell-based. Particulars: ATCC 27853, 16 h. The method, boiled down:
(§2)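 CLSI broth microdilution in Mueller-Hinton broth; TSB cultures grown to OD600 0.5, diluted to final 2 × 10^5 CFU mL−1 and added to serially diluted lipopeptides. Incubated 16 h at 37°C with shaking; MIC = lowest concentration preventing visible growth, from three technical replicates.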

The next data set deals with K. pneumoniae ATCC 11228. The class given is cell-based. Conditions: ATCC 11228, 16 h. In short, it runs like this:
as §1

The next data set has as its system A. baumannii 2018-006. The class given is cell-based. Particulars: 2018-006, 16 h. The method, boiled down: as §1
For the next data set, the system named is K. pneumoniae JS-123. The class given is cell-based. Particulars: JS-123, 16 h. The method, boiled down: as §1
Another data set has as its system A. baumannii ATCC 17961. The class given is cell-based. Conditions: ATCC 17961, 16 h. The method, boiled down: as §1
The test system of the next data set is A. baumannii ATCC 17978. It is filed as cell-based. Conditions: ATCC 17978, 16 h. In short, it runs like this:
as §1

In data set [1] the test system is E. coli ATCC 25922. The class given is cell-based. In short, it runs like this: as §1
Another data set relates to S. aureus USA300. The class given is cell-based. Particulars: USA300, 16 h. In short, it runs like this: as §2
Another data set concerns P. aeruginosa M-120. It is filed as cell-based. Particulars: M-120, 16 h. In short, it runs like this:
as §1

The subject of the next data set is K. pneumoniae ATCC 13883. It is filed as cell-based. Particulars: ATCC 13883, 16 h. In short, it runs like this: as §1
Another data set concerns P. aeruginosa PAO1. The class given is cell-based. Particulars: PAO1, 16 h. The method, boiled down: as §1
Data set [2] concerns E. coli ATCC 25922. The experiment in a line: Neutropenic mouse thigh infection efficacy study. It is filed as in vivo, mice (ICR). Particulars: neutropenic mice. The protocol:
(§3) In vivo tolerability and efficacy studies
(§4) Ethical Issues. Animal experiments were performed under UK Home Office Licences P89653310 (tolerability and PK) and PA67E0BAA (thigh efficacy), with local ethical committee clearance.
(§5) Animal Strain. Mice used in these studies were supplied by Charles River (Margate UK) and were specific pathogen free. The strain of mice used was ICR (also known as CD1 Mice) which is a well characterized outbred murine strain. Mice (male) were 11-15 g on receipt and were allowed to acclimatise for at least 7 days.
(§6) Animal Housing. Mice were housed in sterilised individual ventilated cages exposing the mice at all times to HEPA filtered sterile air. Mice had free access to food and water and had aspen chip bedding (changed at least once weekly). The room temperature was 22°C +/ - 1°C, with a relative humidity of 60% and maximum background noise of 56 dB. Mice were exposed to 12 h light/dark […]
Test compounds. Compound 6 was dissolved in water for injection in which it formed a clear […]
colourless solution. […]
Compound 6 was administered via subcutaneous administration route at 3 8-h […]
The mice used in the tolerability study were naïve and were not immunosuppressed or infected.
Efficacy study. The in vivo efficacy of compound 6 was assessed in a mouse thigh abscess model where both thighs of each mouse were infected with E. coli ATCC 25922
Immunosuppression. […]
Endpoints. One h and 20.5 (planned 25) h post-infection, the clinical condition of all animals was assessed prior to humane euthanasia using pentobarbitone overdose, and the thighs were removed and weighed. Thigh samples were homogenized in 3mL ice cold sterile PBS; the homogenates were quantitatively cultured onto CLED agar and incubated at 37°C for 18 - 24 h before colonies were […]
Data analysis. The data from the culture burdens were analysed using appropriate non-parametric statistical models (Kruskal-Wallis using Conover-Inman to make all pairwise comparisons between groups) with StatsDirect software v. […]

The nature of data set [3]: In vivo tolerability study. Conditions: naïve ICR mice, subcutaneous, 40 mg kg^−1 q8h over 24 h (total daily dose 120 mg kg^−1). The protocol:
as §3, §4, §5, §6
Test compounds. Compound 6 was dissolved in water for injection in which it formed a clear colourless solution. Polymyxin B was dissolved in saline for injection to produce a clear colourless […]
Tolerability study. The tolerability of compound 6 was assessed in the same mouse strain used for the efficacy studies. Compound 6 was administered via subcutaneous administration route at 3 8-h […]
The mice used in the tolerability study were naïve and were not immunosuppressed or infected. […]

For orientation: MIC means the lowest concentration found to suppress growth.

Structures are written as SMILES. Converted amounts (≈) assume the structure as drawn. Read-outs that look alike come from different tables or passages of the source. Positions of bridges follow the written chain, without caps; N, C: chain ends. Non-standard residues stand in square brackets, D forms with d. Residues, ends and D or L forms follow the SMILES beside them. *: point of attachment. Octanoyl(7-Me) = CC(C)CCCCCC(=O)*; dOrn = NCCC[C@@H](N)C(=O)O; Orn = NCCC[C@H](N)C(=O)O; Dap = NC[C@H](N)C(=O)O Some results are limits rather than exact numbers.

With `CC[C@H](C)[C@@H]1NC(=O)[C@@H](NC(=O)[C@H](Cc2c[nH]c3ccccc23)NC(=O)[C@@H](CCCN)NC(=O)CNC(=O)[C@H](CCCN)NC(=O)[C@@H](CCCN)NC(=O)[C@@H](Cc2c[nH]c3ccccc23)NC(=O)[C@@H](Cc2ccc(O)cc2)NC(=O)[C@@H](CO)NC(=O)CCCCCC(C)C)CNC(=O)CNC(=O)CNC(=O)[C@H](CC(N)=O)NC1=O` [Dap9-Lat (6), Dap9-laterocidamide] ({Octanoyl(7-Me)}-[dS][dY][dW][dOrn][Orn]G[dOrn]W[Dap]INGG; lactam 9-C), the minimum inhibitory concentration (MIC) in the data set with K. pneumoniae 2048 was 2 µg/mL (≈ 1.26 µM); with P. aeruginosa NRZ-03961 it was 2 µg/mL (≈ 1.26 µM); with P. aeruginosa ATCC 27853, 0.5 to 1 µg/mL; with K. pneumoniae ATCC 11228, 2 µg/mL (≈ 1.26 µM); in the data set with A. baumannii 2018-006, 4 µg/mL (≈ 2.52 µM); in the data set on K. pneumoniae JS-123 it was 0.5 µg/mL (≈ 0.314 µM). Also, the minimal inhibitory concentration (MIC) is 4 µg/mL (≈ 2.52 µM) in the data set on A. baumannii ATCC 17961; 4 µg/mL (≈ 2.52 µM) against A. baumannii ATCC 17978; 1 µg/mL (≈ 0.629 µM) with E. coli ATCC 25922 [1] (ATCC 25922, 16 h); 1.0 µg/mL (≈ 0.629 µM) in the data set on E. coli ATCC 25922 [1] (Ec ATCC 25922, broth microdilution (CLSI), MHB, 2 × 10^5 CFU/mL, 16 h 37 °C, visual read-out, three technical replicates); more than 64 µg/mL against S. aureus USA300; 1 to 2 µg/mL with P. aeruginosa M-120. In addition, the MIC against K. pneumoniae ATCC 13883 is 2 µg/mL (≈ 1.26 µM); with P. aeruginosa PAO1 it was 1 to 2 µg/mL. The “dose response of thigh burden” value in the data set with E. coli ATCC 25922 [2] (E. coli ATCC 25922 thigh infection, 10, 20 and 40 mg kg^−1 SC q8h) is “clear dose response”. In the data set with E. coli ATCC 25922 [2] (thigh infection with E. coli ATCC 25922, 40 mg kg^−1 SC q8h starting 1 h post-infection, thigh burden cfu g^−1 at 20.5 h), the “reduction in bacterial load relative to the untreated group” value was approximately 5 log. Also, the tolerability entry in data set [3] is given as “well tolerated”; in [3] (listed as 6), “good tolerability”.
